Assay results reported in BindingDB's records for patent US20240270732 (Chengdu Biobel Biotechnology Co., 2024).

Target: T1, Receptor-interacting serine/threonine-protein kinase 1 (Homo sapiens, UniProt Q13546)
T1 sequence (Q13546 whole entry): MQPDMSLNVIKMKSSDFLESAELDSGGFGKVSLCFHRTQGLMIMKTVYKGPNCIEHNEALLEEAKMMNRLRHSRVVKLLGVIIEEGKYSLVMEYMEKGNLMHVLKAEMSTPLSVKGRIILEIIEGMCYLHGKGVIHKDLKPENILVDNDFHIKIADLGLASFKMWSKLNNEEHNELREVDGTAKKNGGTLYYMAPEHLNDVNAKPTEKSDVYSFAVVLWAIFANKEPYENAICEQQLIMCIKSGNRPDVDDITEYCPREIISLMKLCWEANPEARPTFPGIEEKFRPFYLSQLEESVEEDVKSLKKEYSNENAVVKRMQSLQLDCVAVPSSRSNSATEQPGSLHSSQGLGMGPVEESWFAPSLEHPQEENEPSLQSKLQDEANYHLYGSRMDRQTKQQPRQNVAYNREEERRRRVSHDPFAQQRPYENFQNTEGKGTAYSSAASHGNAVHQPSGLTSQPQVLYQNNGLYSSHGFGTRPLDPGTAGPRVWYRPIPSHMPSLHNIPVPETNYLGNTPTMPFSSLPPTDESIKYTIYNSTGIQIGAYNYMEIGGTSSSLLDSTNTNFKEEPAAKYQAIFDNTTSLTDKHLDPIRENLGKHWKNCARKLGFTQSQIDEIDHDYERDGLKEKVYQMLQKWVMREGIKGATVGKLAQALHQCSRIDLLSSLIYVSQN
Experiment: Inhibitory Activity Assay
Protocol: The compound of the present invention and the control compound were dissolved in the assay buffer (50 mM Hepes pH 7.5, 50 mM NaCl, 30 mM MgCl2, 1 mM DTT, 0.02% CHAPS, 0.5 mg/mL BSA), and diluted in a ratio of 1:1.5 using a 22-point titration (high concentration 2 μM), and then added to a 384-well plate. […] After completion of the reaction, 5 μL of ADP-Glo reagent containing 0.02% CHAPS was added to each well and incubated at room temperature for 1 h to terminate the kinase reaction and use up all remaining ATP. Then, 5 μL of ADP-Glo detection solution containing 0.02% CHAPS was added to each well and incubated at room temperature for 30 min to measure the emittance intensity.

SMILES	IC50
C[C@H]1Oc2ccc(C#CCN3CCN(CC#Cc4ccc5c(c4)N(C)C(=O)[C@@H](NC(=O)c4n[nH]c(Cc6ccccc6)n4)CO5)CC3)cc2N(C)C(=O)[C@H]1NC(=O)c1n[nH]c(Cc2ccccc2)n1 [US20240270732, Compound I-3]	7.22 nM
C[C@H]1Oc2ccc(C#CCN3CCN(CC#Cc4ccc5c(c4)N(C)C(=O)[C@@H](NC(=O)c4ncn(Cc6ccccc6)n4)[C@@H](C)O5)CC3)cc2N(C)C(=O)[C@H]1NC(=O)c1n[nH]c(Cc2ccccc2)n1 [US20240270732, Compound I-4]	6.68 nM
C[C@H]1Oc2ccc(C#CCN3CCN(CC#Cc4ccc5c(c4)N(C)C(=O)[C@@H](NC(=O)c4ncn(Cc6ccccc6)n4)CO5)CC3)cc2N(C)C(=O)[C@H]1NC(=O)c1n[nH]c(Cc2ccccc2)n1 [US20240270732, Compound I-5]	3.35 nM
C[C@H]1Oc2ccc(C#CCN3CCN(CC#Cc4ccc5c(c4)N(C)C(=O)[C@@H](NC(=O)c4nnn(Cc6ccccc6)n4)[C@@H](C)O5)CC3)cc2N(C)C(=O)[C@H]1NC(=O)c1n[nH]c(Cc2ccccc2)n1 [US20240270732, Compound I-6]	11.2 nM
C[C@H]1Oc2ccc(C#CCN3CCN(CC#Cc4ccc5c(c4)N(C)C(=O)[C@@H](NC(=O)c4nnn(Cc6ccccc6)n4)CO5)CC3)cc2N(C)C(=O)[C@H]1NC(=O)c1n[nH]c(Cc2ccccc2)n1 [US20240270732, Compound I-7]	7.81 nM
C[C@H]1Oc2ccc(C#CCN3CCN(CC#Cc4ccc5c(c4)N(C)C(=O)[C@@H](NC(=O)c4n[nH]c(Cc6ccccc6)n4)[C@@H](C)O5)CC3)cc2N(C)C(=O)[C@H]1NC(=O)c1cn(Cc2ccccc2)cn1 [US20240270732, Compound I-8]	9.5 nM
C[C@H]1Oc2ccc(C#CCN3CCN(CC#Cc4ccc5c(c4)N(C)C(=O)[C@@H](NC(=O)c4cn(Cc6ccccc6)cn4)CO5)CC3)cc2N(C)C(=O)[C@H]1NC(=O)c1n[nH]c(Cc2ccccc2)n1 [US20240270732, Compound I-9]	8.72 nM
C#CCN1CCN(CC#Cc2ccc3c(c2)N(C)C(=O)[C@@H](NC(=O)c2n[nH]c(Cc4ccccc4)n2)CO3)CC1 [US20240270732, Compound I-10]	3.21 nM
CN1C(=O)[C@@H](NC(=O)c2n[nH]c(Cc3ccccc3)n2)COc2ccc(C#CCN3CCN(CC#Cc4ccc5c(c4)N(C)C(=O)[C@@H](NC(=O)c4n[nH]c(Cc6ccccc6)n4)CO5)CC3)cc21 [US20240270732, Compound I-11]	1.96 nM
C[C@H]1Oc2ccc(C#CCN3CCN(CC#Cc4ccc5c(c4)N(C)C(=O)[C@@H](NC(=O)c4n[nH]c(Cc6ccccc6)n4)CO5)CC3)cc2N(C)C(=O)[C@H]1NC(=O)c1ncn(Cc2ccccc2)n1 [US20240270732, Compound I-12]	2.75 nM
CN1C(=O)[C@@H](NC(=O)c2n[nH]c(Cc3ccccc3)n2)COc2ccc(C#CCN3CCN(CC#Cc4ccc5c(c4)N(C)C(=O)[C@@H](NC(=O)c4ncn(Cc6ccccc6)n4)CO5)CC3)cc21 [US20240270732, Compound I-13]	3.22 nM
C#CCN1CCN(CC#Cc2ccc3c(c2)N(C)C(=O)[C@@H](NC(=O)c2n[nH]c(Cc4ccccc4)n2)[C@@H](C)O3)CC1 [US20240270732, Compound I-14]	4.79 nM
C#CCN1CCN(CC#Cc2ccc3c(c2)NC(=O)[C@@H](NC(=O)c2n[nH]c(Cc4ccccc4)n2)[C@@H](C)O3)CC1 [US20240270732, Compound I-16]	5.59 nM
C[C@H]1Oc2ccc(C#CCN3CCN(CC#Cc4ccc5c(c4)NC(=O)[C@@H](NC(=O)c4n[nH]c(Cc6ccccc6)n4)[C@@H](C)O5)CC3)cc2NC(=O)[C@H]1NC(=O)c1n[nH]c(Cc2ccccc2)n1 [US20240270732, Compound I-17]	3.56 nM
C#CCN1CCN(CC#Cc2ccc3c(c2)N(C)C(=O)[C@@H](NC(=O)c2n[nH]c(Cc4ccccc4)n2)[C@H](C)O3)CC1 [US20240270732, Compound I-18]	57.7 nM
C[C@@H]1Oc2ccc(C#CCN3CCN(CC#Cc4ccc5c(c4)N(C)C(=O)[C@@H](NC(=O)c4n[nH]c(Cc6ccccc6)n4)[C@H](C)O5)CC3)cc2N(C)C(=O)[C@H]1NC(=O)c1n[nH]c(Cc2ccccc2)n1 [US20240270732, Compound I-19]	62.3 nM
C#CCN1CCN(CC#Cc2ccc3c(c2)NC(=O)[C@@H](NC(=O)c2n[nH]c(Cc4ccccc4)n2)CO3)CC1 [US20240270732, Compound I-20]	9.44 nM
O=C(N[C@H]1COc2ccc(C#CCN3CCN(CC#Cc4ccc5c(c4)NC(=O)[C@@H](NC(=O)c4n[nH]c(Cc6ccccc6)n4)CO5)CC3)cc2NC1=O)c1n[nH]c(Cc2ccccc2)n1 [US20240270732, Compound I-21]	9.69 nM

SMILES	IC50
C[C@H]1Oc2ccc(C#CCN3CCN(CC#Cc4ccc5c(c4)N(C)C(=O)[C@@H](NC(=O)c4ncn(Cc6ccccc6)n4)[C@@H](C)O5)CC3)cc2N(C)C(=O)[C@H]1NC(=O)c1ncn(Cc2ccccc2)n1 [US20240270732, Compound I-23]	4.66 nM
C[C@H]1Oc2ccc(C#CCN3CCN(CC#Cc4ccc5c(c4)N(C)C(=O)[C@@H](NC(=O)c4nnn(Cc6ccccc6)n4)[C@@H](C)O5)CC3)cc2N(C)C(=O)[C@H]1NC(=O)c1ncn(Cc2ccccc2)n1 [US20240270732, Compound I-25]	3.39 nM
C[C@H]1Oc2ccc(C#CCN3CCN(CC#Cc4ccc5c(c4)N(C)C(=O)[C@@H](NC(=O)c4nnn(Cc6ccccc6)n4)CO5)CC3)cc2N(C)C(=O)[C@H]1NC(=O)c1ncn(Cc2ccccc2)n1 [US20240270732, Compound I-26]	3.73 nM
C[C@H]1Oc2ccc(C#CCN3CCN(CC#Cc4ccc5c(c4)N(C)C(=O)[C@@H](NC(=O)c4ncn(Cc6ccccc6)n4)[C@@H](C)O5)CC3)cc2N(C)C(=O)[C@H]1NC(=O)c1cn(Cc2ccccc2)cn1 [US20240270732, Compound I-27]	4 nM
C[C@H]1Oc2ccc(C#CCN3CCN(CC#Cc4ccc5c(c4)N(C)C(=O)[C@@H](NC(=O)c4cn(Cc6ccccc6)cn4)CO5)CC3)cc2N(C)C(=O)[C@H]1NC(=O)c1ncn(Cc2ccccc2)n1 [US20240270732, Compound I-28]	4.59 nM
C#CCN1CCN(CC#Cc2ccc3c(c2)N(C)C(=O)[C@@H](NC(=O)c2ncn(Cc4ccccc4)n2)CO3)CC1 [US20240270732, Compound I-29]	2.88 nM
C[C@H]1Oc2ccc(C#CCN3CCN(CC#Cc4ccc5c(c4)N(C)C(=O)[C@@H](NC(=O)c4ncn(Cc6ccccc6)n4)CO5)CC3)cc2N(C)C(=O)[C@H]1NC(=O)c1ncn(Cc2ccccc2)n1 [US20240270732, Compound I-31]	2.95 nM
CN1C(=O)[C@@H](NC(=O)c2ncn(Cc3ccccc3)n2)COc2ccc(C#CCN3CCN(CC#Cc4ccc5c(c4)N(C)C(=O)[C@@H](NC(=O)c4ncn(Cc6ccccc6)n4)CO5)CC3)cc21 [US20240270732, Compound I-32]	3.08 nM
C[C@H]1Oc2ccc(C#CCN3CCN(CC#Cc4ccc5c(c4)N(C)C(=O)[C@@H](NC(=O)c4ncn(Cc6ccccc6)n4)CO5)CC3)cc2N(C)C(=O)[C@H]1NC(=O)c1cn(Cc2ccccc2)cn1 [US20240270732, Compound I-33]	3.54 nM
CN1C(=O)[C@@H](NC(=O)c2cn(Cc3ccccc3)cn2)COc2ccc(C#CCN3CCN(CC#Cc4ccc5c(c4)N(C)C(=O)[C@@H](NC(=O)c4ncn(Cc6ccccc6)n4)CO5)CC3)cc21 [US20240270732, Compound I-34]	4.68 nM
C#CCN1CCN(CC#Cc2ccc3c(c2)N(C)C(=O)[C@@H](NC(=O)c2ncn(Cc4ccccc4)n2)[C@@H](C)O3)CC1 [US20240270732, Compound I-37]	4.17 nM
O=C(N[C@H]1COc2ccc(C#CCN3CCN(CC#Cc4ccc5c(c4)NC(=O)[C@@H](NC(=O)c4ncn(Cc6ccccc6)n4)CO5)CC3)cc2NC1=O)c1ncn(Cc2ccccc2)n1 [US20240270732, Compound I-42]	5.03 nM
C#CCN1CCN(CC#Cc2ccc3c(c2)N(C)C(=O)[C@@H](NC(=O)c2ncc(Cc4ccccc4)o2)[C@@H](C)O3)CC1 [US20240270732, Compound I-43]	12.7 nM
C[C@H]1Oc2ccc(C#CCN3CCN(CC#Cc4ccc5c(c4)N(C)C(=O)[C@@H](NC(=O)c4ncc(Cc6ccccc6)o4)[C@@H](C)O5)CC3)cc2N(C)C(=O)[C@H]1NC(=O)c1ncc(Cc2ccccc2)o1 [US20240270732, Compound I-44]	14.9 nM
C#CCN1CCN(CC#Cc2ccc3c(c2)N(C)C(=O)[C@@H](NC(=O)c2cc(Cc4ccccc4)on2)[C@@H](C)O3)CC1 [US20240270732, Compound I-45]	14.2 nM
C[C@H]1Oc2ccc(C#CCN3CCN(CC#Cc4ccc5c(c4)N(C)C(=O)[C@@H](NC(=O)c4cc(Cc6ccccc6)on4)[C@@H](C)O5)CC3)cc2N(C)C(=O)[C@H]1NC(=O)c1cc(Cc2ccccc2)on1 [US20240270732, Compound I-46]	10.8 nM
C#CCN1CCN(CC#Cc2ccc3c(c2)N(C)C(=O)[C@@H](NC(=O)c2cnn(Cc4ccccc4)c2)[C@@H](C)O3)CC1 [US20240270732, Compound I-47]	13.6 nM
